Values of other authors in patent US20210330903A1, “Multiple Dose Nasal Spray of Naloxone” (Navinta III Inc, priority 2020, published 2021).

## C=CCN1CC[C@]23c4c5ccc(O)c4O[C@H]2C(=O)CC[C@@]3(O)[C@H]1C5.Cl [Naloxone hydrochloride, 17-Allyl-4,5α-epoxy-3,14 dihydroxymorphinan-6-one hydrochloride]
alcohol
  solubility in alcohol: slightly soluble
chloroform
  solubility in chloroform: practically insoluble
Dilute acids
  solubility in dilute acids: soluble
ether
  solubility in ether: practically insoluble
Strong alkali
  solubility in strong alkali: soluble
water
  solubility in water: soluble
